Blank lines part the entries; values can stand above or below the compound they belong to.
Legend:
physchem = details: buffer, pH 7.4, logD
[1] = target: T1, Voltage-gated inwardly rectifying potassium channel KCNH2 (Homo sapiens, UniProt Q12809)
Description: (§1) Inhibition of human ERG expressed in HEK293 cells by Barracuda automated patch clamp assay

[2] = target: T1, Voltage-gated inwardly rectifying potassium channel KCNH2; remark: listed apart in the source
Description: Inhibition of human ERG expressed in HEK293 cells by Q-patch assay

[3] = Protein binding in human blood at 1 ug/ml after 4 hrs by LC-MS/MS analysis; assay type: ADME, tissue-based; details: at 1 µg/mL, read-out: PB (converted)
[4] = target: T1, Voltage-gated inwardly rectifying potassium channel KCNH2; details: HEK293 cells expressing hERG
Description: as §1

[5] = buffer, pH 7.4
[6] = Blood clearance in Wistar Han rat at 1 mg/kg, iv via 30 mins infusion followed by 2 day washout and re-dosed via oral gavage at 3 mg/kg; assay type: ADME, organism-based; details: whole blood
[7] = Volume of distribution at steady state in Wistar Han rat at 1 mg/kg, iv via 30 mins infusion followed by 2 day washout and re-dosed via oral gavage at 3 mg/kg; assay type: ADME, organism-based; details: in vivo, read-out: Vdss
[8] = Terminal half life in Wistar Han rat at 1 mg/kg, iv dosed via 30 mins infusion; assay type: ADME, organism-based; details: in vivo, read-out: beta t1/2
[9] = Cmax in Wistar Han rat at 3 mg/kg, po via gavage; assay type: ADME, organism-based; design: dose 3 mg/kg, route oral; details: in vivo
[10] = Oral bioavailability in Wistar Han rat at 3 mg/kg via gavage; assay type: ADME, organism-based; details: in vivo
[11] = Cmax in Wistar Han rat nebulized with dose level of 0.227 mg/kg; assay type: ADME, organism-based; design: dose 0.227 mg/kg; details: in vivo, inhaled or intranasal
[12] = Bioavailability in Wistar Han rat nebulized with dose level of 0.227 mg/kg; assay type: ADME, organism-based; details: in vivo, inhaled or intranasal
[13] = Clearance in Beagle dog blood at 1 mg/kg, iv dosed via 60 mins infusion followed by 6 days washout and re-dosed via oral gavage at 1 mg/kg; assay type: ADME, organism-based, Canis lupus familiaris; details: whole blood
[14] = Volume of distribution at steady state in Beagle dog blood at 1 mg/kg, iv dosed via 60 mins infusion followed by 6 days washout and re-dosed via oral gavage at 1 mg/kg; assay type: ADME, organism-based, Canis lupus familiaris; details: whole blood, read-out: Vdss
[15] = Terminal half life in Beagle dog blood at 1 mg/kg, iv dosed via 60 mins infusion followed by 6 days washout and re-dosed via oral gavage at 1 mg/kg; assay type: ADME, organism-based, Canis lupus familiaris; details: whole blood, read-out: beta t1/2
[16] = Cmax in Beagle dog at 1 mg/kg, po via gavage; assay type: ADME, organism-based, Canis lupus familiaris; design: dose 1 mg/kg, route oral; details: in vivo
[17] = Tmax in Beagle dog blood at 1 mg/kg, iv dosed via 60 mins infusion followed by 6 days washout and re-dosed via oral gavage at 1 mg/kg; assay type: ADME, organism-based, Canis lupus familiaris; details: whole blood
[18] = Oral bioavailability in Beagle dog at 1 mg/kg via gavage; assay type: ADME, organism-based, Canis lupus familiaris; details: in vivo
Rattus norvegicus [19] = experiment: Total renal clearance in Wistar Han rat at 1 mg/kg, iv; assay type: ADME, organism-based; details: in vivo
Canis familiaris [20] = experiment: Total renal clearance in Beagle dog at 1 mg/kg, iv; assay type: ADME, organism-based, Canis lupus familiaris; details: in vivo
Rattus norvegicus [21] = experiment: Clearance in Wistar Han rat at 1 mg/kg, iv relative to liver blood flow; assay type: ADME, organism-based; details: in vivo
Canis familiaris [22] = experiment: Clearance in Beagle dog at 1 mg/kg, iv relative to liver blood flow; assay type: ADME, organism-based, Canis lupus familiaris; details: in vivo
[23] = Bioavailability in Wistar Han rat at 1 mg/kg, it measured after 12 hrs post dose; assay type: ADME, organism-based; details: in vivo, inhaled or intranasal
[24] = Bioavailability in Wistar Han rat at 0.227 mg/kg administered via nebulisation; assay type: ADME, organism-based; details: in vivo, inhaled or intranasal
[25] = Drug uptake in Wistar Han rat lung at 0.227 mg/kg administered via nebulisation after 7 hrs; assay type: ADME, organism-based; details: inhaled or intranasal, read-out: Drug uptake
[26] = Drug uptake in Wistar Han rat lung at 0.227 mg/kg administered via nebulisation up to 7 hrs; assay type: ADME, organism-based; details: in vivo, inhaled_or_intranasal
[27] = Drug uptake in Wistar Han rat lung at 6.23 mg/kg administered via nebulized inhalation for 60 mins and measured immediately after inhalation period by MALDI-MS analysis; assay type: ADME, organism-based; details: in vivo, inhaled_or_intranasal, 1 h
[28] = Drug uptake in Wistar Han rat lung at 6.23 mg/kg administered via nebulized inhalation for 60 mins and measured after 60 mins post inhalation period by MALDI-MS analysis; assay type: ADME, organism-based; details: in vivo, inhaled_or_intranasal, 1 h
[29] = Drug uptake in lung of C57Bl/6J mouse at 1.5 mg/kg/day, sc administered via continuous infusion through mini-pumps measured within 24 hrs; assay type: ADME, organism-based; details: in vivo
[30] = Drug uptake in lung of C57Bl/6J mouse at 15 mg/kg/day, sc administered via continuous infusion through mini-pumps measured within 24 hrs; assay type: ADME, organism-based; details: in vivo
[31] = Protein binding in mouse blood at 1 ug/ml after 4 hrs by rapid equilibrium dialysis and LC-MS/MS analysis; assay type: ADME, tissue-based; details: at 1 µg/mL, read-out: PB (converted)
[32] = Protein binding in rat blood at 1 ug/ml after 4 hrs by rapid equilibrium dialysis and LC-MS/MS analysis; assay type: ADME, tissue-based; details: at 1 µg/mL, read-out: PB (converted)
[33] = Protein binding in dog blood at 1 ug/ml after 4 hrs by rapid equilibrium dialysis and LC-MS/MS analysis; assay type: ADME, tissue-based, Canis lupus familiaris; details: at 1 µg/mL, read-out: PB (converted)
[34] = Protein binding in human blood at 1 ug/ml after 4 hrs by rapid equilibrium dialysis and LC-MS/MS analysis; assay type: ADME, tissue-based; details: at 1 µg/mL, read-out: PB (converted)
[35] = Protein binding in dog plasma at 1 ug/ml after 4 hrs by rapid equilibrium dialysis and LC-MS/MS analysis; assay type: ADME, cell-free, Canis lupus familiaris; details: at 1 µg/mL, read-out: PPB (converted)
[36] = Protein binding in human plasma at 1 ug/ml after 4 hrs by rapid equilibrium dialysis and LC-MS/MS analysis; assay type: ADME, cell-free; details: at 1 µg/mL, read-out: PPB (converted)
[37] = Protein binding in mouse lung at 1 ug/ml after 4 hrs by rapid equilibrium dialysis and LC-MS/MS analysis; assay type: ADME, tissue-based; details: at 1 µg/mL, read-out: PB (converted)
[38] = Protein binding in human lung at 1 ug/ml after 4 hrs by rapid equilibrium dialysis and LC-MS/MS analysis; assay type: ADME, tissue-based; details: at 1 µg/mL, read-out: PB (converted)
[39] = Protein binding in rat liver at 1 ug/ml after 4 hrs by rapid equilibrium dialysis and LC-MS/MS analysis; assay type: ADME, tissue-based; details: at 1 µg/mL, read-out: PB (converted)
[40] = Protein binding in rat kidneys at 1 ug/ml after 4 hrs by rapid equilibrium dialysis and LC-MS/MS analysis; assay type: ADME, tissue-based; details: rat kidney tissue, at 1 µg/mL, read-out: PB (converted)
[41] = Clearance in CD mouse liver microsomes at 0.5 uM up to 45 mins by LC-MS/MS analysis; assay type: ADME, microsome; details: 0.75 h
[42] = Clearance in Wistar Han rat liver microsomes at 0.5 uM up to 45 mins by LC-MS/MS analysis; assay type: ADME, microsome; details: 0.75 h
[43] = Clearance in Beagle dog liver microsomes at 0.5 uM up to 45 mins by LC-MS/MS analysis; assay type: ADME, Canis lupus familiaris, microsome; details: 0.75 h
[44] = Clearance in human liver microsomes at 0.5 uM up to 45 mins by LC-MS/MS analysis; assay type: ADME, microsome; details: 0.75 h
[45] = Clearance in CD mouse hepatocytes at 0.5 uM up to 60 mins by LC-MS/MS analysis; assay type: ADME, cell-based, Hepatocyte; details: 1 h
[46] = Clearance in Wistar Han rat hepatocytes at 0.5 uM up to 60 mins by LC-MS/MS analysis; assay type: ADME, cell-based, Hepatocyte; details: 1 h
[47] = Clearance in Beagle dog hepatocytes at 0.5 uM up to 60 mins by LC-MS/MS analysis; assay type: ADME, cell-based, Canis lupus familiaris, Hepatocyte; details: 1 h
[48] = Clearance in human hepatocytes at 0.5 uM up to 60 mins by LC-MS/MS analysis; assay type: ADME, cell-based, Hepatocyte; details: 1 h
Rattus norvegicus [49] = experiment: Biliary clearance in Wistar Han rat assessed as unchanged parent compound level at 1 mg/kg, iv relative to total blood clearance; assay type: ADME, organism-based; details: in vivo
in vivo [50] = details: Wistar Han, rat, po, 3 mg/kg
in vivo [51] = details: Wistar Han, rat, inhaled or intranasal, 0.227 mg/kg
Description: Tmax in Wistar Han rat nebulized with dose level of 0.227 mg/kg

[52] = Stability in solid state form at elevated temperatures and relative humidity conditions; assay type: physicochemical
[53] = Stability in saline at pH 4 at 50 degC; assay type: physicochemical; details: buffer
[54] = Stability in pH 5 to 7 solution under refrigerated conditions; assay type: physicochemical; details: buffer

T1 sequence (Q12809 whole entry): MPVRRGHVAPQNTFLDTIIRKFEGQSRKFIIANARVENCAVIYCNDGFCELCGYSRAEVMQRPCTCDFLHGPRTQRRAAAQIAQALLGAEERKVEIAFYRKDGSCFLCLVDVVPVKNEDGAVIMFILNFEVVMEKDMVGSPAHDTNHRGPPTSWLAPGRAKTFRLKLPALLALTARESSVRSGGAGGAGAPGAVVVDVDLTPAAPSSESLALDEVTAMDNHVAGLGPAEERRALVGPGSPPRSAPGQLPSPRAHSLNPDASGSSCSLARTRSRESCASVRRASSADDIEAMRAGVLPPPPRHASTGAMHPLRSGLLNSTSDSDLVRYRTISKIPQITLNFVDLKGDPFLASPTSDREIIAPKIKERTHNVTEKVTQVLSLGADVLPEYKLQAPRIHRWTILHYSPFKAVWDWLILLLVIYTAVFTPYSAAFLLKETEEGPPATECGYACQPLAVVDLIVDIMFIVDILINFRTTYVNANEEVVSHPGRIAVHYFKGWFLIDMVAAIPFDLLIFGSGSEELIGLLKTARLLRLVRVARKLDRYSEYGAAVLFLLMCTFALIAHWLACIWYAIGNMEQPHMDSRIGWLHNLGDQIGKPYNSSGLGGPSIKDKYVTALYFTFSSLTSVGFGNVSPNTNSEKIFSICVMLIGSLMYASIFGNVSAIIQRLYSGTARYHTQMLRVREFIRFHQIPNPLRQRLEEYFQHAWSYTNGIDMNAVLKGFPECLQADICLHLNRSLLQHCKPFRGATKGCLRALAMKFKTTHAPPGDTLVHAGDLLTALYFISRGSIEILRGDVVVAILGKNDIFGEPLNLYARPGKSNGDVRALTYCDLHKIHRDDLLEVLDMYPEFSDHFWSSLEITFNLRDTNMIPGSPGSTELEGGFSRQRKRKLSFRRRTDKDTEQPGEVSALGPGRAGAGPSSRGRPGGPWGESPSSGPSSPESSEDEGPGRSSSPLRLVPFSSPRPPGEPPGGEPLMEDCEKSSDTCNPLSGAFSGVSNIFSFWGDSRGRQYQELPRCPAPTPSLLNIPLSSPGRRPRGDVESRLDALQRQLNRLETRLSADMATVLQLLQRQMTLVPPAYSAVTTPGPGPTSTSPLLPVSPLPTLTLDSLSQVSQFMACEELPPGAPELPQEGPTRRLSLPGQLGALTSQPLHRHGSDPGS

Compound: O=C(O)C[C@H](CN1CC[C@@H](CCc2ccc3c(n2)NCCC3)C1)c1cccc(C2CCOC2)c1 (stereo in doubt; 28xI1)
IC50 [1]: 39.8 µM | IC50 [2]: 12.6 µM | logD (physchem): 2.56

Compound: O=C(O)C[C@H](CN1CC[C@@H](CCc2ccc3c(n2)NCCC3)C1)c1cccc(C2CCOC2)c1 (stereo in doubt; 28xI2)
fraction unbound at 4 h, 1 ug/ml [3]: 0.17 | IC50 [2]: 31.6 µM | pIC50 [4]: 4.4 | logD [5]: 2.58

Compound: Cc1cc(C)n(-c2cccc([C@H](CC(=O)O)CN3CC[C@@H](CCc4ccc5c(n4)NCCC5)C3)c2)n1 [GSK-3008348 FREE BASE]
fraction unbound at 4 h, 1 ug/ml [3]: 0.08 | clearance [6]: 51 to 60 mL/min/kg | Vd [7]: 1.8 to 2.3 L/kg | half-life [8]: 48 to 54 min | Cmax [9]: 3 to 9 ng/mL | bioavailability [10]: < 2% | Cmax [11]: 30 to 53 ng/mL | bioavailability [12]: 40 to 63% | clearance [13]: 25 to 33 mL/min/kg | Vd [14]: 2.6 to 4.7 L/kg | half-life [15]: 72 to 324 min | Cmax [16]: 55 to 76 ng/mL | Tmax [17]: 15 to 30 min | bioavailability [18]: 27 to 34% | CL (Rattus norvegicus [19]): 15% | CL (Canis familiaris [20]): 21% | CL (Rattus norvegicus [21]): 70% | CL (Canis familiaris [22]): 50% | bioavailability [23]: 21% | bioavailability [24]: 54% | concentration at 7 h [25]: 10 ng/g | Drug uptake [26]: 716 ng | Drug uptake [27]: Active | Drug uptake [28]: Not Active | Drug uptake [29]: Active | Drug uptake [30]: Active | fraction unbound at 4 h, 1 ug/ml [31]: 0.211 | fraction unbound at 4 h, 1 ug/ml [32]: 0.294 | fraction unbound at 4 h, 1 ug/ml [33]: 0.228 | fraction unbound at 4 h, 1 ug/ml [34]: 0.083 | fraction unbound at 4 h, 1 ug/ml [35]: 0.4 | fraction unbound at 4 h, 1 ug/ml [36]: 0.036 | fraction unbound at 4 h, 1 ug/ml [37]: 0.1 | fraction unbound at 4 h, 1 ug/ml [38]: 0.108 | fraction unbound at 4 h, 1 ug/ml [39]: 0.085 | fraction unbound at 4 h, 1 ug/ml [40]: 0.027 | CLH [41]: 3 mL/min/g | CLH [42]: 0.55 mL/min/g | CLH [43]: < 0.53 mL/min/g | CLH [44]: 0.58 mL/min/g | CLH [45]: 15.3 mL/min/g | CLH [46]: 9.45 mL/min/g | CLH [47]: < 1.73 mL/min/g | CLH [48]: < 0.86 mL/min/g | CL (Rattus norvegicus [49]): 24% | Tmax (in vivo [50]): 0.5 to 2 h | Tmax (in vivo [51]): 12 min

Compound: Cc1cc(C)n(-c2cccc([C@H](CC(=O)O)CN3CC[C@@H](CCc4ccc5c(n4)NCCC5)C3)c2)n1.Cl [GSK-3008348]
Stability [52]: 4 weeks | Stability [53]: <= 6 weeks | Stability [54]: 6 weeks

More lines, main results first:

logD (physchem): 2.72
Compound: Cc1cnn(C)c1-c1cccc([C@H](CC(=O)O)CN2CC[C@@H](CCc3ccc4c(n3)NCCC4)C2)c1

logD (physchem): 2.4
Compound: O=C(O)C[C@H](CN1CC[C@@H](CCc2ccc3c(n2)NCCC3)C1)c1cccc(-n2cccn2)c1
IC50 [1]: > 50.1 µM | IC50 [2]: 0.794 µM

logD (physchem): 1.97
Compound: O=C(O)CC(CN1CC[C@@H](CCc2ccc3c(n2)NCCC3)C1)c1cccc(-n2ccnc2)c1 (mixture of isomers)
IC50 [1]: > 50.1 µM | IC50 [2]: > 31.6 µM
